The text below walks through data of article PMC12828148, “Engineered cyclic peptide targeting ITGA5 disrupts tumor–stroma interaction to overcome desmoplasia and resistance in pancreatic ductal adenocarcinoma” (Acta Pharmaceutica Sinica. B, 2025).

Peptide text beside a SMILES is read from it.

Data set [1] is described as follows: Peptide stability in human plasma. The data set is classed as in vitro ADME. As to conditions: 20 µmol/L peptide, 50% human plasma, 37 °C, 1, 2 and 24 h, TCA precipitation, RP-HPLC UV 280 nm. On the procedure:
(§1) To evaluate the stability, 20 µmol/L peptide was incubated in 50% human plasma at biological temperature 37 °C for 1, 2, and 24 h. After incubation, plasma was precipitated by adding equal volume of 4% trichloroacetic acid (TCA) and rested on ice for 10 min. As control (or 0h), precipitation was performed immediately after mixing the peptide and plasma. Supernatant was collected after centrifugation at 13,300 × g and assessed using reversed phase high performance liquid chromatography (HPLC) with 5%, 95%, and 99.9% acetonitrile in de-gassed water with 0.1% trifluoroacetic acid as eluents. The remaining peptide was analyzed at a wavelength 280 nm.
Quantitative real-time PCR […]
The next day, the medium […]
was changed with 0% FBS Stellate Cell medium to starve hPSCs for 24 h. Subsequently, hPSCs were incubated with 5 ng/mL TGF-β1 and peptide for 48 h to examine the effect on protein expression of different markers such as α-SMA and collagen-1. Cells were lysed using 1× blue loading buffer containing 1× DTT reducing agent (Cell Signaling Technology) and homogenized using ultrasonication. Protein lysates were separated on a 4%–20% Tris-Glycine gel (Thermo Scientific) and then transferred onto a PVDF membrane (Thermo Scientific). […]

Data set [2] has as its system hPSC activated with TGF-β. In words: Inhibition of TGF-β-induced PSC activation (immunocytochemical staining, Western blot). The data set is classed as cell-based, human. As to conditions: 5 ng/mL TGF-β, 48 h, peptides at 20 and 50 μmol/L. How it is done: secondary peroxidase labeled antibody was added and incubated for 1 h at RT. The HRP signal was developed using standard chemiluminescence kit and the signal was measured.
as §1
Quantitative real-time PCR
To examine the effect of peptides on the gene expression of hPSC activation markers, cells were seeded into a 12 well plate at a seeding density of 50,000 cells/well. After overnight incubation, cells were starved for 24 h, then treated with human recombinant 5 ng/mL TGF-β (Peprotech, Hamburg, Germany) and […] peptide. After 24 h of the incubation, cells were lysed and total RNA was isolated using GenElute™ Mammalian Total RNA Miniprep Kit (Sigma–Aldrich) and the RNA concentration was measured using a NanoDrop® ND-1000 Spectrophotometer (Thermo Scientific, Waltham, USA). cDNA was synthesized with iScript™ cDNA Synthesis Kit (BioRad, Veenendaal, The Netherlands), and 10 ng cDNA was used for each PCR reaction. […] Quantitative real time PCR was performed with 2× SensiMix SYBR and Fluoroscein Kit (Bioline GmbH, Luckenwalde, Germany) using a BioRad CFX384 Real-Time PCR detection system (BioRad). […]
To evaluate the effect of peptides on the protein expression of hPSC activation markers, hPSCs were seeded into a 12 well plate at seeding density 50,000 cells/well. […] Proteins were detected with […]
medium. […] Images were analyzed using […]
secondary fluorescence-labeled antibody diluted in PBS. […]

The target in the next data set is T1, human integrin α5β1 (Homo sapiens, UniProt P05556+P08648).
T1 construct: purchased RnD (printed for the alanine-replacement peptide array, not for the ELISA itself)
In words: ITGA5 competition study (α5β1 binding to FN-coated plate, ELISA). As to conditions: human recombinant α5β1 on FN-coated plate, increasing peptide concentrations. How it is done: To examine the affinity of the peptide to the target ITGA5, a 96 well MaxiSorp™ (Thermo Scientific) was coated with 100 μL FN (Advanced Biomatrix) at 1 μg/mL by overnight incubation at 4 °C. Next, the plate was washed with DPBS (Lonza) and blocked with 5% bovine serum albumin (BSA) in DPBS for at least 1 h at RT. In the meantime, mentioned concentrations of the peptides were mixed with 2 μg/mL human integrin α5β1 in DPBS with Mg^2+ and Ca^2+. The mixture was then set to rest for 30 min at RT. After blocking with 5% BSA, the plate was washed with DPBS. The mixture of integrin α5β1 and peptide was transferred to a well plate and incubated for 1 h at RT. Next, the plate was washed three times with PBS with 0.1% Tween 20 (PBS-T) and then mouse anti-human CD49e (RnD Systems) was added. After 1 h of incubation, plate was washed and the secondary peroxidase labeled antibody was added and incubated for 1 h at RT. After washing with PBS-T, the plate was quickly developed with 3,3′,5,5′-tetramethylbenzidine (TMB) (50 μL per well) and incubated for 5 min at RT in the dark. The reaction was stopped with 3 mol/L H2SO4 (50 μL per well) and the absorbance was measured at 450 nm with plate reader (Tecan).
In general terms: ELISA stands for enzyme-linked immunosorbent assay.

The test system of data set [3] is PANC-1 homospheroids / PANC-1 + PSC heterospheroids. In words: Gene expression in 3D PANC-1 homospheroids and PANC-1 + PSC heterospheroids (qPCR). The data set is classed as cell-based, human. As to conditions: treated Days 3 and 6, qPCR Day 7, n = 3. (Quantitative PCR measures a nucleic acid by following its amplification.)

For `C[C@@H]1NC(=O)[C@H](CCCNC(=N)N)NC(=O)[C@H](Cc2ccc(O)cc2)NC(=O)[C@H](Cc2ccc(O)cc2)NC(=O)[C@H](CCCNC(=N)N)NC(=O)CNC(=O)[C@H](CCCCN)NC(=O)[C@H](Cc2ccc(O)cc2)NC(=O)[C@H]([C@@H](C)O)NC1=O` [cyAV3.3] (cyclo(ATYKGRYYR)), in data set [1], the “stability of the peptides in human plasma” value is listed as “significant improvement in the stability”. Also, the “inhibition of downstream signaling p-FAK” value in data set [2] (Western blot) is “more inhibition”. Further, in data set [2] (immunostaining and Western blot), the “inhibition of PSC activation by TGF-β1 (expression of α-SMA and collagen-1)” value is reported as “much stronger than AV3.3”. Moreover, the “blocking of FN-α5β1 interaction, cyclic versus linear” value on human integrin α5β1 is listed as “blocked the interaction significantly stronger than AV3.3”. Moreover, the “gene expression levels related to resistance, stemness and ECM in heterospheroids” value in data set [3] (PANC-1 + PSC heterospheroids) was “significantly reduced”. Also, the “gene expression in homospheroids” value in data set [3] (PANC-1 homospheroids) is given as “some genes including ABCG1, KRAS, MMP2, MMP9 were inhibited”.
